Measurements from US20050085463A1 (priority 2003, published 2005).
Several values for one entry are separate records, joined by “and”; a condition that tells them apart may be missing. Equal values may be shown once.

Assays:
M1 receptors = M1 receptors (Homo sapiens, UniProt P11229); assay: Ligand binding screen at 10 μM
M3 muscarinic receptor = M3 muscarinic receptor (Homo sapiens, UniProt P20309); assay: R-SAT agonist assay
5HT1B receptors = 5HT1B receptors (Homo sapiens, UniProt P28222); assay: Ligand binding screen at 10 μM
Sequence of 5HT1B receptors (P28222 whole entry): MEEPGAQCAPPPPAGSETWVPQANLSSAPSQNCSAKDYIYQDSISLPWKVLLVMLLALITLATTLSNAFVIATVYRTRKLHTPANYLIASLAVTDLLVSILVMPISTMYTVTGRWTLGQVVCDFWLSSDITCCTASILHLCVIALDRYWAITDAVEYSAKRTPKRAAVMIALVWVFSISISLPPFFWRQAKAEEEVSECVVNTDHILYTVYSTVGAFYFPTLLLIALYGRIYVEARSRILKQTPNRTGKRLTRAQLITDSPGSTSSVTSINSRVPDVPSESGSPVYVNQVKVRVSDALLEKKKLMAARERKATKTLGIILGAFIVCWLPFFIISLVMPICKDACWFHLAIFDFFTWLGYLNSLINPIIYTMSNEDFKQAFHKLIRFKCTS

D2 dopamine receptor = D2 dopamine receptor (Homo sapiens, UniProt P14416); assay: R-SAT competitive antagonist assay
Sequence of D2 dopamine receptor (P14416 whole entry): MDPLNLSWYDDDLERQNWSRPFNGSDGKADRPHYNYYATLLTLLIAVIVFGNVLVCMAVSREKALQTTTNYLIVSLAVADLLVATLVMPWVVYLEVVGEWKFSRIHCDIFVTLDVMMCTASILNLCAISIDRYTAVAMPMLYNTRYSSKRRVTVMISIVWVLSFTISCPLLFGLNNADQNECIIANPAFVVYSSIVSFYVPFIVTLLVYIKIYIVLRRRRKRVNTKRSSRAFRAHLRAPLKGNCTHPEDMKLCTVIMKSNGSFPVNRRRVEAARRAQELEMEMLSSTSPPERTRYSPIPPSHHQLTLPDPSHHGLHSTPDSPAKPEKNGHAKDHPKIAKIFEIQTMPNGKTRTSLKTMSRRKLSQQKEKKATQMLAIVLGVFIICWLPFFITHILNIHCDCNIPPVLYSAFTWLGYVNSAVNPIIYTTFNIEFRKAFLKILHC

cFOS expression in brain = conditions: s.c. 7.5 and 30.0 mg/kg; two hours; western blotting (Young et al.); cited from earlier work
D1 receptors = D1 receptors (Homo sapiens, UniProt P21728); assay: Ligand binding screen at 10 μM
Sequence of D1 receptors (P21728 whole entry): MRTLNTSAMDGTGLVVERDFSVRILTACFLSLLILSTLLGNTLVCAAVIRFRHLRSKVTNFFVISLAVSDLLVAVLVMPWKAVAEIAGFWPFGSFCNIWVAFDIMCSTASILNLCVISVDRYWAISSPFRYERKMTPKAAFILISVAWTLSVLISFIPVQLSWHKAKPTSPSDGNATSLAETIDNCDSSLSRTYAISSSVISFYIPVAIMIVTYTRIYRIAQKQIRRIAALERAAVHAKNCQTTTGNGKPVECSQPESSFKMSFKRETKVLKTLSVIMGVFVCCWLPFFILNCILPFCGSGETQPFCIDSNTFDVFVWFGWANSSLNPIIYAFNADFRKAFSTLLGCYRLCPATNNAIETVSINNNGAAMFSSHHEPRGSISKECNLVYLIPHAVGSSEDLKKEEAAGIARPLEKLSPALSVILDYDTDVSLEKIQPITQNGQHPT

α1 receptors = assay: Ligand binding screen at 10 μM
5-HT1A receptor = biological target: T1, 5-HT1A receptor (Homo sapiens, UniProt P08908); assay: Ligand binding screen at 10 μM
T1 sequence (P08908 1-422): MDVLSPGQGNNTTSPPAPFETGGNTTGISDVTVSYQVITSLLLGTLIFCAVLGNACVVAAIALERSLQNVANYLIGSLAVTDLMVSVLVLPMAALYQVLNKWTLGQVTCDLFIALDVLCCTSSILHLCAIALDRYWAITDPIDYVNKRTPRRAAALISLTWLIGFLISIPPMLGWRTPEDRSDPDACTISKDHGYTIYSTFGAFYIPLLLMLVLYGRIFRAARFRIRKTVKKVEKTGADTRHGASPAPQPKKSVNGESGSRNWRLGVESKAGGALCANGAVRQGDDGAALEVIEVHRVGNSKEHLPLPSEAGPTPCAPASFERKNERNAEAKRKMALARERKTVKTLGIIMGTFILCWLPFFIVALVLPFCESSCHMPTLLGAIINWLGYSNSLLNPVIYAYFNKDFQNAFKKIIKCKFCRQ

[1] = test system: apomorphine-induced climbing; assay: Reversal of apomorphine-induced climbing; conditions: s.c.
[2] = biological target: T2, α1A (Alpha 1A) adrenergic receptor (Homo sapiens, UniProt P35348); assay: cell-based
T2 sequence (P35348 1-466): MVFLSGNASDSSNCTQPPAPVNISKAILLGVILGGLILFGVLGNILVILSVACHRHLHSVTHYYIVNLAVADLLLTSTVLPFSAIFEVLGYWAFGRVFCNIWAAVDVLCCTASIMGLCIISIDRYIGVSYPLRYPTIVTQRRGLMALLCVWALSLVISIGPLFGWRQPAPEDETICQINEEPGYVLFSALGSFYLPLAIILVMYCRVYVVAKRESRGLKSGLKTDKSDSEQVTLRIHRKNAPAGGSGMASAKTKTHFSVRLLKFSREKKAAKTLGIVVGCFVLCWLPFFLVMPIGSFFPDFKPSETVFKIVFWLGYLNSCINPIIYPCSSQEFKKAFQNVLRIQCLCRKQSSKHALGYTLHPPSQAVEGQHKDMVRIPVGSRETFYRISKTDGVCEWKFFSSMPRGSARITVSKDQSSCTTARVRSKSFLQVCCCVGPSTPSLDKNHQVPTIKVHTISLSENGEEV

spontaneous activity = assay: Spontaneous locomotion; format: in vivo, Non-Swiss Albino (NSA) mice; conditions: 10 mg/kg s.c.; maintained for 120 minutes
M2 receptors = M2 receptors (Homo sapiens, UniProt P08172); assay: Ligand binding screen at 10 μM
Sequence of M2 receptors (P08172 whole entry): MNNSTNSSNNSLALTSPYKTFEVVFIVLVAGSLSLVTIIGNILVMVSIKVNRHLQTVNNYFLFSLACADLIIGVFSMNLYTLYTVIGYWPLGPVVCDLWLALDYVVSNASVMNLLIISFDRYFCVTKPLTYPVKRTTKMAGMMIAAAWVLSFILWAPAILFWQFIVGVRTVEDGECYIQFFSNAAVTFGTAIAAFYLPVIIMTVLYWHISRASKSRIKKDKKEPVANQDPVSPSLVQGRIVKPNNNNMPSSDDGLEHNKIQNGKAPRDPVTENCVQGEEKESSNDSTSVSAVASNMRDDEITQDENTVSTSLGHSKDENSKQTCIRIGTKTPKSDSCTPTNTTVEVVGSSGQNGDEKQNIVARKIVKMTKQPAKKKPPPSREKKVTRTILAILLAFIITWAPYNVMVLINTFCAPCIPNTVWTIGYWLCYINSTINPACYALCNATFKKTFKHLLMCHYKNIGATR

M3 receptors = M3 receptors (Homo sapiens, UniProt P20309); assay: Ligand binding screen at 10 μM
Sequence of M3 receptors (P20309 whole entry): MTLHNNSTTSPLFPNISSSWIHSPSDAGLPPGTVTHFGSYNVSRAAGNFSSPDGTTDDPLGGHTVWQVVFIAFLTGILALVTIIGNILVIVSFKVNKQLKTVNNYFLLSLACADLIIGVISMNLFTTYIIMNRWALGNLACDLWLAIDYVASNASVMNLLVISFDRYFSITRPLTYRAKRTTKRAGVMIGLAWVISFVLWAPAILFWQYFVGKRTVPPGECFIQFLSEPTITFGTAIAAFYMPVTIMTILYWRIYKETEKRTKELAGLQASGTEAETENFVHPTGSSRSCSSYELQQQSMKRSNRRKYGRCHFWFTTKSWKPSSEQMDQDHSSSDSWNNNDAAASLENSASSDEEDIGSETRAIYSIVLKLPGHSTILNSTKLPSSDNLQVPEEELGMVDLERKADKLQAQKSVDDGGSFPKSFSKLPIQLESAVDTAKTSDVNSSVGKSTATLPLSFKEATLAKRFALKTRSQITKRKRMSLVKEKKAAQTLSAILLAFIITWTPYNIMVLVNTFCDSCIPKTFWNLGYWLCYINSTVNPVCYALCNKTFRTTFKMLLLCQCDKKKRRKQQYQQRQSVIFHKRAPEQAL

5-HT2C receptor = 5-HT2C receptor (Homo sapiens, UniProt P28335); assay: R-SAT competitive antagonist assay
Sequence of 5-HT2C receptor (P28335 33-458): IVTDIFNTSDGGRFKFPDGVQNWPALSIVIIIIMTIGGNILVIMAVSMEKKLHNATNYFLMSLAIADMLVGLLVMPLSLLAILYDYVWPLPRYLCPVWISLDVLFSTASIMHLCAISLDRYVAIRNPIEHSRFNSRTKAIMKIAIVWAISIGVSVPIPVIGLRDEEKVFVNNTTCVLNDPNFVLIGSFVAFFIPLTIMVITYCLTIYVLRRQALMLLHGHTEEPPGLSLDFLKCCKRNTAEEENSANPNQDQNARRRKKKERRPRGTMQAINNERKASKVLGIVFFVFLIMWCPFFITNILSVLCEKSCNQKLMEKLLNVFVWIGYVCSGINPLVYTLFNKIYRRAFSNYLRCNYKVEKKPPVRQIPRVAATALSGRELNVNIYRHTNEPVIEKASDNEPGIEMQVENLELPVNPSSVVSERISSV

H1 histamine receptor = H1 histamine receptor (Homo sapiens, UniProt P35367); assay: R-SAT competitive antagonist assay
Sequence of H1 histamine receptor (P35367 whole entry): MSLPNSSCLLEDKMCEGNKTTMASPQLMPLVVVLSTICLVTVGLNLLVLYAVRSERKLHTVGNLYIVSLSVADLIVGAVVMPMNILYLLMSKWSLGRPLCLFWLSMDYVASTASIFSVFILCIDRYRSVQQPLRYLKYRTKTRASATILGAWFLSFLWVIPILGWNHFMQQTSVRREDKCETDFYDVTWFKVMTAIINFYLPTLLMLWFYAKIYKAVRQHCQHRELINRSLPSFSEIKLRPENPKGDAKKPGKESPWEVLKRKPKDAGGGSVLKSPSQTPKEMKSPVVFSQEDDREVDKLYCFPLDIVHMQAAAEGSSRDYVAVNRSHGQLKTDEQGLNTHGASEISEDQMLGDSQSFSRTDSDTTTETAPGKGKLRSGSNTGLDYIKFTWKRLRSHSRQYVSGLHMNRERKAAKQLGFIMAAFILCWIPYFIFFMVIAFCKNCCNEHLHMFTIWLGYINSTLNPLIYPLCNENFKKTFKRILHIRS

5HT3 receptors = 5HT3 receptors (Homo sapiens, UniProt P46098); assay: Ligand binding screen at 10 μM
Sequence of 5HT3 receptors (P46098 24-478): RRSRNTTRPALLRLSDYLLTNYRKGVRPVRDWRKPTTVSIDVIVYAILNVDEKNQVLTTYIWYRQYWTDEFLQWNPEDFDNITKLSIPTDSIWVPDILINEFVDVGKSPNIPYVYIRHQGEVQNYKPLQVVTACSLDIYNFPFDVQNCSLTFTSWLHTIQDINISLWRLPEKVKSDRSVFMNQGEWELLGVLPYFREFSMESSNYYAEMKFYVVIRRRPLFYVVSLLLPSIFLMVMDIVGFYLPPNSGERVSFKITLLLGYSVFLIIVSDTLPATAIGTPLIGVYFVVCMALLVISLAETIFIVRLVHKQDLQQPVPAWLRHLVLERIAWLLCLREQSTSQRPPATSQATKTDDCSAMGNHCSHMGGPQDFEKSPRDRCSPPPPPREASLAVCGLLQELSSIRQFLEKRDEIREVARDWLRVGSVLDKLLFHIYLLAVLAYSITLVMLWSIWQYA

D25 receptors = D25 receptors (Homo sapiens, UniProt P14416); assay: Ligand binding screen at 10 μM
Sequence of D25 receptors (P14416 1-414 isoform P14416-2): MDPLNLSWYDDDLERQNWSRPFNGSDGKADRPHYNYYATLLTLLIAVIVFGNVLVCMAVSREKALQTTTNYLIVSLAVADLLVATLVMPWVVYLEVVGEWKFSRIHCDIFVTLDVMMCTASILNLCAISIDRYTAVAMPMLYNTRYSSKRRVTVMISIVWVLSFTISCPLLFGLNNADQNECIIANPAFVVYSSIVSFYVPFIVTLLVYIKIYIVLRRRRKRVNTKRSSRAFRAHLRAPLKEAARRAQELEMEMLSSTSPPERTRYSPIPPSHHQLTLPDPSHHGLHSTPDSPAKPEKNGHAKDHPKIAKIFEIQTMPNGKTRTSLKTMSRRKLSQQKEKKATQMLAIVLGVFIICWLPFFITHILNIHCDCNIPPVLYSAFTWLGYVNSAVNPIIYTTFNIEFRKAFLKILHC

[3] = dog; oral clozapine (Mosier et al. 2003); cited from earlier work
[4] = Brain-to-plasma ratio in rats; format: in vivo; conditions: male, Sprague-Dawley, rat, po, 10 mg/kg, brain-to-plasma ratio of NDMC
Procedure: The pharmacokinetics of clozapine and N-desmethylclozapine (NDMC) was evaluated in rats after intravenous (i.v.) and oral (p.o.) dosing. Cmax, Tmax and bioavailability after p.o. dosing and the volume of distribution (Vss), terminal plasma half-life (T1/2) and clearance (CLs) after i.v. dosing were determined. […] Animals were euthanised and brain and plasma samples obtained at 60 or 240 minutes post-dose, depending on study group. The levels of NDMC and clozapine were measured in each sample.
The pharmacokinetic study described above included an initial assessment of the distribution of NDMC into brain.

[5] = R-SAT, nr = no significant antagonist or inverse agonist activity up to 1 μM, nr* = nr but significant agonist activity

Sequence of M3 muscarinic receptor (P20309 whole entry): as the sequence (P20309 whole entry) above
Sequence of M1 receptors (P11229 whole entry): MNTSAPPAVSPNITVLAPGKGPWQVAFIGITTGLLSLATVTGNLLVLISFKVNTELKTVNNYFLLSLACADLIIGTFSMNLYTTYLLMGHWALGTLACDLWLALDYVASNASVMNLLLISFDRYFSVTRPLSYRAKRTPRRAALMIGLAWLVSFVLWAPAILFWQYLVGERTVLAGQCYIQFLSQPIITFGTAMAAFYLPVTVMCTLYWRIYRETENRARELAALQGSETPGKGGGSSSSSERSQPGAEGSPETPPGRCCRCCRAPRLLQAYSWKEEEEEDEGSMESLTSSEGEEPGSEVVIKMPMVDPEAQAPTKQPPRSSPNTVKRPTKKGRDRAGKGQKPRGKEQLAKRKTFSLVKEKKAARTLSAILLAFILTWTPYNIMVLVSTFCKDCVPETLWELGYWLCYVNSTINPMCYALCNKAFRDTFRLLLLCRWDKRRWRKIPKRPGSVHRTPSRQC

In the case of `Clc1ccc2c(c1)N=C(N1CCNCC1)c1ccccc1N2` [NDMC, 8-chloro-11-(1-piperazinyl)-5H-dibenzo [b,e][1,4] diazepine], the inhibition at 10 µM (M1 receptors) is reported as ≥ 90%, the EC50 (M3 muscarinic receptor; M3 pEC50, R-SAT agonist) is reported as 324 nM and 316 nM and the “M3 Efficacy” value (M3 muscarinic receptor; R-SAT, relative to carbachol, No response/nr = no agonist activity up to 10 μM) is reported as 27 ± 4%. The inhibition at 10 µM (5HT1B receptors) was ≥ 90%, the Ki (D2 dopamine receptor) was 63.1 nM and the “pKi D2, competitive antagonist” value (D2 dopamine receptor; [5]) was 7.2 ± 0.1. The “cFOS expression in brain regions” value (cFOS expression in brain) was “induction of cFOS expression in the pre-frontal cortex and nucleus accumbens, but not in striatum”, the inhibition at 10 µM (D1 receptors) was ≥ 90% and the “inhibition of binding, α1” value (α1 receptors) was ≥ 90%. The inhibition at 10 µM (5-HT1A receptor) was ≥ 90%, the “minimal effective dose, reduction of apomorphine-induced climbing” value [1] was > 100 mg/kg and the Ki [2] was 50.1 nM. The “time of maximal reduction of spontaneous activity” value (spontaneous activity) was 30 min, the inhibition at 10 µM (M2 receptors) was ≥ 90% and the inhibition at 10 µM (M3 receptors) was ≥ 90%. For the same compound, the Ki (5-HT2C receptor) was 15.8 nM, the “pKi 5-HT2C, competitive antagonist” value (5-HT2C receptor; [5]) was 7.8 ± 0.2 and the Ki (H1 histamine receptor) was 6.31 nM. For the same compound, the “pKi H1, competitive antagonist” value (H1 histamine receptor; [5]) was 8.2 ± 0.2, the inhibition at 10 µM (5HT3 receptors) was ≥ 90% and the inhibition at 10 µM (D25 receptors) was ≥ 90%. The “Cmax of desmethylclozapine as share of that of clozapine” value [3] was “approximately 20%”, the Kp at 1 h ([4]; 60 minutes after oral 10 mg/kg NDMC) was 0.36 ± 0.16 and the Kp at 1 h ([4]; 60 minutes after oral clozapine) was 0.26 ± 0.07. For the same compound, the Kp at 4 h ([4]; 240 minutes after oral 10 mg/kg NDMC) was 1 ± 0.4 and the Kp at 4 h ([4]; 240 minutes after oral clozapine) was 2.6 ± 0.8.
